Results on 2 compounds are retold here after patent US10118936B2, “Arginase inhibitors and methods of use” (ASTRAZENECA AB, priority 2009, dated 2018).

In one assay the test system is microvasculature. To be noted: subcutaneous administration in humans; cited from earlier work.
Assay [1] deals with T1, human arginase II (hArgII) (Homo sapiens, UniProt P78540).
T1 sequence (P78540 23-354): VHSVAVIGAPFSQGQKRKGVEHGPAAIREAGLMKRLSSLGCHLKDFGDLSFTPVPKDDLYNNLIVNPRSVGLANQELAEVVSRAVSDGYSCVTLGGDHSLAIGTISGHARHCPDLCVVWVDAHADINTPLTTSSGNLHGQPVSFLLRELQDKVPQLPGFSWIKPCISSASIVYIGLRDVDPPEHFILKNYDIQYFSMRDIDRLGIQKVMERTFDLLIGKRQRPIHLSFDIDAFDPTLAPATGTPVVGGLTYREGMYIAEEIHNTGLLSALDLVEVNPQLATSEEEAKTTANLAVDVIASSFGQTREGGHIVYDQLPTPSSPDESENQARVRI
The assay can be described thus: QuantiChrom colorimetric arginase inhibition assay, human arginase II. As to conditions: IC50 from 12-concentration curve converted to Ki by Cheng-Prusoff equation. Format: biochemical. On the procedure:
(§1) Quantitative determination of arginase activity was performed by a colorimetric method using the QuantiChrom™ Arginase Assay Kit available from BioAssay Systems (Hayward, Calif., Catalog No. DARG-200), which was used according to the manufacture's protocol. Briefly, the method utilizes a chromogen that forms a colored complex specifically with urea produced in the arginase reaction. […] The intensity of the color is directly proportional to the arginase activity in the sample.
(§2) The rate of urea production was measured in the presence of twelve different concentrations of each potential inhibitor compound. The half maximal inhibitory concentration (IC50) was determined by constructing a dose-response curve. As IC50 values are dependent upon the measurement conditions, the IC50 values are converted to the inhibitor binding affinity (Ki) using the Cheng-Prusoff equation and the measured affinity constant (Km) of L-arginine.

The next assay has as its target T2, human arginase I (hArgI) (Homo sapiens, UniProt P05089).
T2 sequence (P05089 1-322): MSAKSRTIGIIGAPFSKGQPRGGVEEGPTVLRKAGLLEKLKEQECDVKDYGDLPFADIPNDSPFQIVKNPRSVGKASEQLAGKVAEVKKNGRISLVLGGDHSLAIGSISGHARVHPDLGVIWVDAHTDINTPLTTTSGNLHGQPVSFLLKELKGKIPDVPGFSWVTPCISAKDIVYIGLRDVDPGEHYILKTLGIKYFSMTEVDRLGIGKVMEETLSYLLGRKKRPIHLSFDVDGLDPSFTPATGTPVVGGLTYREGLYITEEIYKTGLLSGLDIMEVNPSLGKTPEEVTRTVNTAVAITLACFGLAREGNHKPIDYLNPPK
The assay can be described thus: QuantiChrom colorimetric arginase inhibition assay, human arginase I. As to conditions: IC50 from 12-concentration curve converted to Ki by Cheng-Prusoff equation. Format: biochemical. On the procedure: as §1, §2

Assay [2] has as its system rabbit and human penile corpus cavernosum. As to conditions: cited from earlier work.
Assay [3] deals with corpus cavernosum of the diabetic person. To be noted: ex vivo; cited from earlier work.
Assay [4] concerns opossum internal anal sphincter muscle. To be noted: cited from earlier work.
The test system of assay [5] is genitalia engorgement response. To be noted: live female rabbits; cited from earlier work.
The next assay has as its system erectile response. To be noted: live male rabbits; cited from earlier work.
Assay [6] has as its system airway hyperresponsiveness. To be noted: guinea pigs, allergic asthma model, nebulizer treatment; cited from earlier work.
For assay [7], the system named is experimental autoimmune encephalomyelitis. As to conditions: cited from earlier work.

With S-(2-boronoethyl)-1-cysteine [BEC], the vasodilation and circulation result in the assay on microvasculature was “vasodilatory and enhances circulation”.
With `N[C@@H](CCCCB(O)O)C(=O)O` [ABH, 2(S)-amino-6-borono-hexanoic acid], the Ki (in assay [1]; on human arginase I (hArgI)) was 0.1 to 10 nM in each case. Moreover, the “NO-dependent relaxation of corpus cavernosum” value in [2] was “enhances the NO-dependent relaxation of this tissue”. Further, in assay [3], the NO biosynthesis entry is on record as “restores NO biosynthesis”. The “relaxation of internal anal sphincter muscle” value in [4] is given as “relax this muscle”. The “engorgement response in the genitalia” value in [5] is “enhances the engorgement response in the genitalia of live female rabbits”. The erectile response result in the assay with erectile response is reported as “enhances the erectile response in live male rabbits”. Further, the airway hyperresponsiveness result in assay [6] is listed as “prevents airway hyperresponsiveness”. Also, the disease score entry in assay [7] was “improves the disease score of animals”.
